According to ChEMBL document CHEMBL1143022, “Free radical trapping properties of several ethyl-substituted derivatives of 5-ethoxycarbonyl-5-methyl-1-pyrroline N-oxide (EMPO)” (Bioorg Med Chem, 2007):

Assay: Partition coefficient, log P of the compound
Format: physicochemical
Conditions: octanol/water

SMILES | logP
CCOC(=O)C1(C)CCC=[N+]1[O-] (configuration not stated) | 0.15
CCOC(=O)C1(CC)C(C)CC=[N+]1[O-] (mixture of isomers) | 1.07
CCOC(=O)C1(C)C(CC)CC=[N+]1[O-] (mixture of isomers) | 1.34
CCOC(=O)[C@]1(C)C[C@@H](CC)C=[N+]1[O-] (relative stereo) | 1.67
CCOC(=O)[C@@]1(CC)C[C@H](C)C=[N+]1[O-] (relative stereo) | 1.48
CCOC(=O)[C@]1(C)C[C@H](CC)C=[N+]1[O-] (relative stereo) | 1.38
CCOC(=O)[C@@]1(CC)C[C@@H](C)C=[N+]1[O-] (relative stereo) | 1.34
